Results: PMC6767204, “Synthesis and Biological Evaluation of Disubstituted Pyrimidines as Selective 5-HT2C Agonists” (Molecules, 2019)
Read-outs that look alike come from different tables or passages of the source.

Key:
5-HT1D receptor = biological target: T1, 5-HT1D receptor (Homo sapiens, UniProt P28221); assay: 5-HT receptor radioligand binding affinity assay, 1D; conditions: for SI, selectivity index, 1D: subtype Ki divided by 5-HT2C Ki
T1 construct: expressed in transfected cells; host or cells: HEK293 or CHO
Protocol: (§1) Eleven dilutions (5 x assay concentration) of the test and reference compounds (Table S1) were prepared in standard binding buffer (50 mM tris(hydroxymethyl)-aminomethane–HCl (Tris-HCl), 10 mM MgCl2, 1 mM ethylenediaminetetraacetate (EDTA), pH 7.4) by serial dilution: 0.05 nM, 0.5 nM, 1.5 nM, 5 nM, 15 nM, 50 nM, 150 nM, 500 nM, 1.5 μM, 5 μM, and 50 μM. The radioligand (Table S1) was diluted to five times the assay concentration in standard binding buffer. Aliquots (50 μL) of the radioligand were dispensed into the wells of a 96-well plate containing 100 μL of standard binding buffer. Triplicate aliquots (50 μL) of the test and reference compound dilutions were then added. Finally, crude membrane fractions (50 μL) of cells (HEK293 or CHO) expressing human recombinant receptors were dispensed into each well. A total 250 μL of the reaction mixtures was incubated at room temperature and shielded from light for 1.5 h, then harvested by rapid filtration onto Whatman GF/B glass fiber filters presoaked with 0.3% polyethyleneimine, by using a 96-well Brandel harvester.
(§2) Four rapid washes were performed with chilled standard binding buffer (500 μL) to decrease nonspecific binding. Filters were placed in 6 mL scintillation tubes and allowed to dry overnight. The next day, 4 ml of EcoScint scintillation cocktail (National Diagnostics) was added to each tube. The tubes were capped, labeled, and counted by liquid scintillation counting. The filter mats were dried, and the scintillant was melted onto the filters, then the radioactivity retained on the filters was counted in a Microbeta scintillation counter. The IC50 values were obtained by using the Prism 4.0 program (GraphPad Software, San Diego, CA) and converted into Ki values. Each compound was tested in triplicate at least.
(§3) 3. Radioligands and reference compounds for binding assay
(§4) Table S1. A list of 5-HT receptor radioligands and reference compounds for binding assay.
(§5) Receptor subtype Radioligand Reference compound
(§6) 1A [3H]8-OH-DPAT Methysergide
(§7) 2A [3H]Ketanserin Chlorpromazine
(§8) 2C [3H]Mesulergine Chlorpromazine

5-HT1B receptor = biological target: T2, 5-HT1B receptor (Homo sapiens, UniProt P28222); assay: 5-HT receptor radioligand binding affinity assay, 1B
T2 construct: expressed in transfected cells; host or cells: HEK293 or CHO

Plasma stability = assay type: in vitro ADME; conditions: human plasma, 37 °C
5-HT2C receptor [1] = biological target: T3, 5-HT2C receptor (Homo sapiens, UniProt P28335); assay: 5-HT receptor radioligand binding affinity assay, 2C; parameters: expressed in transfected cells; conditions: for %Binding at 10 μM, 2C: Table 3; for %binding / Ki: Table 2; for SI, selectivity index, 2C: subtype Ki divided by 5-HT2C Ki
T3 sequence (P28335 33-458): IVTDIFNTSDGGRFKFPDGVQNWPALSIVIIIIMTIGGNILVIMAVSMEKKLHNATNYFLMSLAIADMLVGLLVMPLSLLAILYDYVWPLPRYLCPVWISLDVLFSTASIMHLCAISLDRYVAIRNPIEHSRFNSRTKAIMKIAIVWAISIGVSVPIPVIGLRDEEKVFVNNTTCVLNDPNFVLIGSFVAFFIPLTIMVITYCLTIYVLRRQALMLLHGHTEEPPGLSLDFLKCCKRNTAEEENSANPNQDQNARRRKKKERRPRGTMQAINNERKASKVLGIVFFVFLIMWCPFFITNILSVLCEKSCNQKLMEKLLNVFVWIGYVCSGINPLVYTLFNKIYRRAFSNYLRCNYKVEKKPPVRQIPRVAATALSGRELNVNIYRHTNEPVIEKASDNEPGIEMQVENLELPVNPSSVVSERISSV
Protocol: as §1, §2, §3, §4, §5, §6, §7, §8

Microsomal stability = assay type: in vitro ADME; conditions: pH 7.4, human liver microsomes, read-out: HLM %Remaining @ 1 μM after 0.5 h
Protocol: To human liver microsomes (0.5 mg/mL) were added 0.1 M phosphate buffer (pH 7.4) and tested compounds (1 μM).

5-HT2A receptor [2] = biological target: T4, 5-HT2A receptor (Homo sapiens, UniProt P28223); assay: 5-HT receptor radioligand binding affinity assay, 2A; conditions: for SI, selectivity index, 2A: subtype Ki divided by 5-HT2C Ki
T4 construct: expressed in transfected cells; host or cells: HEK293 or CHO
Protocol: as §1, §2, §3, §4, §5, §6, §7, §8

[3] = tested on: five human CYP450 isozymes; assay: CYP inhibition, all tested isozymes; conditions: all the tested CYP isozymes
Protocol: CYP inhibition values against five human CYP450 isozymes were recorded as % remaining activity values of the given isozymes.
After incubation at 37 °C for 5 min, NADPH generation system solution was also added and incubated at 37 °C for 15 min again. To terminate the reaction, acetonitrile including internal standard (Terfenadine) was added, and the solution was centrifuged for 5 min (14,000 rpm, 4 °C).

5-HT7 receptor = biological target: T5, 5-HT7 receptor (Homo sapiens, UniProt P34969); assay: 5-HT receptor radioligand binding affinity assay, 7; conditions: for SI, selectivity index, 7: subtype Ki divided by 5-HT2C Ki
T5 construct: expressed in transfected cells; host or cells: HEK293 or CHO
Protocol: as §1, §2, §3, §4, §5, §6, §7, §8

5-HT1A receptor = biological target: T6, 5-HT1A receptor (Homo sapiens, UniProt P08908); assay: 5-HT receptor radioligand binding affinity assay, 1A; conditions: for SI, selectivity index, 1A: subtype Ki divided by 5-HT2C Ki
T6 construct: expressed in transfected cells; host or cells: HEK293 or CHO
T6 sequence (P08908 1-422): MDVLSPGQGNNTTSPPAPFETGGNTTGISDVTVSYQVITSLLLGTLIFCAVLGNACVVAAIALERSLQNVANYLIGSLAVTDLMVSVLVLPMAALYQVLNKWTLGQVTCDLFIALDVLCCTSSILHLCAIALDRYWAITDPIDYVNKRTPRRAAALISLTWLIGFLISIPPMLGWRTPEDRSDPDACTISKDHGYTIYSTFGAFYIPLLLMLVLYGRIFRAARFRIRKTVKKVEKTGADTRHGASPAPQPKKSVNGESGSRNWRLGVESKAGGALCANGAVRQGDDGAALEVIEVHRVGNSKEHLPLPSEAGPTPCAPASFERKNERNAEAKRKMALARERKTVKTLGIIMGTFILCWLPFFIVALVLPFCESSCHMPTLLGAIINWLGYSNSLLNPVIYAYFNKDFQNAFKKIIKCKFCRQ
Protocol: as §1, §2, §3, §4, §5, §6, §7, §8

5-HT3 receptor = biological target: T7, 5-HT3 receptor (Homo sapiens, UniProt P46098); assay: 5-HT receptor radioligand binding affinity assay, 3; conditions: for SI, selectivity index, 3: subtype Ki divided by 5-HT2C Ki
T7 construct: expressed in transfected cells; host or cells: HEK293 or CHO
T7 sequence (P46098 24-478): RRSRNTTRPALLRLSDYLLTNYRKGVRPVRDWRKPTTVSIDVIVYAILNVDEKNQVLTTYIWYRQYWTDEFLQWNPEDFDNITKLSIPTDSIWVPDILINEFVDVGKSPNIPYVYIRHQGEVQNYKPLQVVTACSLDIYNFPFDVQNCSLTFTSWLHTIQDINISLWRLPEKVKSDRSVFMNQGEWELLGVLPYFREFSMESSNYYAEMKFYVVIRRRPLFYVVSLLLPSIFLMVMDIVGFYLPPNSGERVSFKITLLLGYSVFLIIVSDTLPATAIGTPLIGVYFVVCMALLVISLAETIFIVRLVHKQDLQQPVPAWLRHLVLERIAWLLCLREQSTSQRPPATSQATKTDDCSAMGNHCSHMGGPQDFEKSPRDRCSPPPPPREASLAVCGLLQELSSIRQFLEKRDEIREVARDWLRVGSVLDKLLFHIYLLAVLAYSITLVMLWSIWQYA
Protocol: as §1, §2, §3, §4, §5, §6, §7, §8

5-HT2C receptor [4] = biological target: T3, 5-HT2C receptor; assay: 5-HT2C receptor cell-based functional assay (agonist mode, fluorescence-based); conditions: Table 2; serotonin as reference compound
Protocol: The synthesized compounds were tested in agonist mode with the 5-HT2C receptor assay using recombinant human HEK-293 cells serviced by either Eurofins Cerep or DGMIF (Daegu-Gyeongbuk Medical Innovation Foundation). All the experiments were duplicated.

5-HT5A receptor = biological target: T8, 5-HT5A receptor (Homo sapiens, UniProt P47898); assay: 5-HT receptor radioligand binding affinity assay, 5A
T8 construct: expressed in transfected cells; host or cells: HEK293 or CHO
Protocol: as §1, §2, §3
(§9) Table S1. A list of 5-HT receptor radioligands and reference compounds for binding assay. […]

5-HT6 receptor = biological target: T9, 5-HT6 receptor (Homo sapiens, UniProt P50406); assay: 5-HT receptor radioligand binding affinity assay, 6; conditions: for SI, selectivity index, 6: subtype Ki divided by 5-HT2C Ki
T9 construct: expressed in transfected cells; host or cells: HEK293 or CHO
Protocol: as §1, §2, §3, §4, §5, §6, §7, §8

5-HT2B receptor = biological target: T10, 5-HT2B receptor (Homo sapiens, UniProt P41595); assay: 5-HT receptor radioligand binding affinity assay, 2B; conditions: for SI, selectivity index, 2B: subtype Ki divided by 5-HT2C Ki
T10 construct: expressed in transfected cells; host or cells: HEK293 or CHO
Protocol: as §1, §2, §3, §4, §5, §6, §7, §8

5-HT1E receptor = biological target: T11, 5-HT1E receptor (Homo sapiens, UniProt P28566); assay: 5-HT receptor radioligand binding affinity assay, 1E
T11 construct: expressed in transfected cells; host or cells: HEK293 or CHO
Protocol: as §1, §2, §3, §9

5-HT2A receptor [5] = biological target: T4, 5-HT2A receptor; parameters: method as in PMID 28846591; conditions: Figure 2; cited from earlier work

T9 sequence (P50406 whole entry): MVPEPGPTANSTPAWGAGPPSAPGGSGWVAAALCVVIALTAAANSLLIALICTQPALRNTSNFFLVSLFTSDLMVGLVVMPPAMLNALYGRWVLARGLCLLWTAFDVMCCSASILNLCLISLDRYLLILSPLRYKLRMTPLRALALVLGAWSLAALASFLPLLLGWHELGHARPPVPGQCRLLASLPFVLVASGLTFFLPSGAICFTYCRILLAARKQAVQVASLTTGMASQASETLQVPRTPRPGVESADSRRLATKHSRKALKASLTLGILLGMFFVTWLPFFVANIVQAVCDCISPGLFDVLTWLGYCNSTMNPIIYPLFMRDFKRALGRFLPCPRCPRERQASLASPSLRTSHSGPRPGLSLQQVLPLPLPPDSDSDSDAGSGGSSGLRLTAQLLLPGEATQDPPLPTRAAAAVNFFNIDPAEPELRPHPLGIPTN
T5 sequence (P34969 whole entry): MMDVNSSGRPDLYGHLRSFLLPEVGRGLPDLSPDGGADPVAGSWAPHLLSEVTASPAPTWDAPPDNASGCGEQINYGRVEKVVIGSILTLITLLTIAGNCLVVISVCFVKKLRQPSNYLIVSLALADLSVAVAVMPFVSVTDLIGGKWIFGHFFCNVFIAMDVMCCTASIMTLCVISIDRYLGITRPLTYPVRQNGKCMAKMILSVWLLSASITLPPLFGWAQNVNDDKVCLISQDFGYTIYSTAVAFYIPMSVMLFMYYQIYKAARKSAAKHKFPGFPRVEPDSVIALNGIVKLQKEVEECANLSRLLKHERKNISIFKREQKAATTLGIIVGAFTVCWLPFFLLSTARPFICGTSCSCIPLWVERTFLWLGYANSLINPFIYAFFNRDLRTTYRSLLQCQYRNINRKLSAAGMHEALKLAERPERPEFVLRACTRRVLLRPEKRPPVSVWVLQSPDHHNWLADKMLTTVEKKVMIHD
T10 sequence (P41595 whole entry): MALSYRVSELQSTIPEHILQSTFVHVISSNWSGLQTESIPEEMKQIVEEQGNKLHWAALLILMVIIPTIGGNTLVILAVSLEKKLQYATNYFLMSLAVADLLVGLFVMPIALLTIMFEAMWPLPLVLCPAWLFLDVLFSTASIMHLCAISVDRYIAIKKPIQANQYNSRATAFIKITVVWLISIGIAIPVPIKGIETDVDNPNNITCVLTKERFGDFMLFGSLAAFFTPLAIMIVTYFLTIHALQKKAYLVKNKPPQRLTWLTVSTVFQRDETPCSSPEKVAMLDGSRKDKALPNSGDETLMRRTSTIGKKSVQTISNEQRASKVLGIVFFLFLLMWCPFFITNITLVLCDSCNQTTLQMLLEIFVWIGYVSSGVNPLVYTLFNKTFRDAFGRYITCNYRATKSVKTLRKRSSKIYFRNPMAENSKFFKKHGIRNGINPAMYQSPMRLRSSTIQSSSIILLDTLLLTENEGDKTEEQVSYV
T4 sequence (P28223 whole entry): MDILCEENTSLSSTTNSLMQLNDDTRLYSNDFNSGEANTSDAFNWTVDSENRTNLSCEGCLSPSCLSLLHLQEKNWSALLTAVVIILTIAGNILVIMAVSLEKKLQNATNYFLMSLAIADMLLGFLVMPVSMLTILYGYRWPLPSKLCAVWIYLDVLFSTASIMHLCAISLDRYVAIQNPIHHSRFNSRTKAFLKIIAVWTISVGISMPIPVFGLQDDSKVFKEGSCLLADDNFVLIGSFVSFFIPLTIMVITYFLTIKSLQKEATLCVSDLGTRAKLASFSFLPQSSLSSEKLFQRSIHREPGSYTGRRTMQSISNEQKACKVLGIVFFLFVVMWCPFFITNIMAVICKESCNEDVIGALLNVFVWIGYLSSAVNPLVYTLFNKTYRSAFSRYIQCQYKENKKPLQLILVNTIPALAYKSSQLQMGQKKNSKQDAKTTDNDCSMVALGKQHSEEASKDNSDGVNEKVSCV
T2 sequence (P28222 whole entry): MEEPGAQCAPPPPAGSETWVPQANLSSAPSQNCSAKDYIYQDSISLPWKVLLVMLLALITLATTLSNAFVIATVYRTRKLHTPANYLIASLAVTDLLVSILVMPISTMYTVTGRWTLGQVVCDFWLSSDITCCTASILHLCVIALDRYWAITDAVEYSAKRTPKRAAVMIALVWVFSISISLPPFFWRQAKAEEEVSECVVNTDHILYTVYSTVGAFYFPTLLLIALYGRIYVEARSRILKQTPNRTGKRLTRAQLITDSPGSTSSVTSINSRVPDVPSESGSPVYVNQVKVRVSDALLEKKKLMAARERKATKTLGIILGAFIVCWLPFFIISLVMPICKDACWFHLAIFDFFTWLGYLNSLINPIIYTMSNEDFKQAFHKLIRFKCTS
T1 sequence (P28221 whole entry): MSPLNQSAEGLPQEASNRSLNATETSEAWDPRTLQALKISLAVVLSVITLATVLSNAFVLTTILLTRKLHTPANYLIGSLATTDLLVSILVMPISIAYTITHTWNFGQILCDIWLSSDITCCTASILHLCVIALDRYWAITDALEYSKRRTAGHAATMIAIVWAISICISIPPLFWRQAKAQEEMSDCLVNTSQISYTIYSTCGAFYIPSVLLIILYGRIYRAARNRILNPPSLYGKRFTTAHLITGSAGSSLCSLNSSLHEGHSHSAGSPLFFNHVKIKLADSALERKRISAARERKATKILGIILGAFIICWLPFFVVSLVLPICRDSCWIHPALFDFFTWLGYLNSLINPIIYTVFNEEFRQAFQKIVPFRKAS
T11 sequence (P28566 whole entry): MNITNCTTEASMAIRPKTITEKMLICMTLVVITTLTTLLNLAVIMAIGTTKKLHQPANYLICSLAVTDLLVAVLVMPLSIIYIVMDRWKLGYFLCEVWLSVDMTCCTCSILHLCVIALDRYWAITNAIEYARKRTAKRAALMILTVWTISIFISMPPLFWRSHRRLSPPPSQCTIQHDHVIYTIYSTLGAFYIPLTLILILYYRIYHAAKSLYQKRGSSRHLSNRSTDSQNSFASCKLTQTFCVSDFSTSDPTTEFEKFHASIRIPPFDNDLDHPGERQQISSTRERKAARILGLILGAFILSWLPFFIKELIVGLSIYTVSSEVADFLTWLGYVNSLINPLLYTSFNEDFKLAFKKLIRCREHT
T8 sequence (P47898 whole entry): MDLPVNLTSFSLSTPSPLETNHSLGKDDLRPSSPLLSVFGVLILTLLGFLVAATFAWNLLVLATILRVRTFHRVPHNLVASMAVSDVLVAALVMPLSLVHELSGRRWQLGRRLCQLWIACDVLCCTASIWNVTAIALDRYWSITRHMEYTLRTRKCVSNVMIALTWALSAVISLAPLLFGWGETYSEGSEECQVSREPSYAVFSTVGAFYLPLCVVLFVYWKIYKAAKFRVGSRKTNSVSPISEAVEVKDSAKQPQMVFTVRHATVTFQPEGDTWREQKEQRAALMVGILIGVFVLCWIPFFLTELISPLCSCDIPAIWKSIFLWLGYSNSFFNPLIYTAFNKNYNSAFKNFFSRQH

## C[C@@H](Oc1nc(N2CCCNCC2)ncc1F)c1cccc(F)c1 [10a, (R)-1-(5-fluoro-4-(1-(3-fluorophenyl)ethoxy)pyrimidin-2-yl)-1,4-diazepane]
5-HT1D receptor
  Ki: 679 nM
  %Binding at 10 μM, 1D: 71.4%
  SI, selectivity index, 1D: 85.9
5-HT1B receptor
  Ki: 3240 nM
  %Binding at 10 μM, 1B: 56.1%
5-HT1B receptor; subtype Ki divided by 5-HT2C Ki
  SI, selectivity index, 1B: 409.7
Plasma stability; 0.5 h, read-out: Plasma Stability %Remaining @ 10 μM after 0.5 h
  remaining at 0.5 h, 10 μM: 99.9%
Plasma stability; 2 h, read-out: Plasma Stability %Remaining @ 10 μM after 2 h
  remaining at 2 h, 10 μM: 98%
5-HT2C receptor [1]
  %Binding at 10 μM, 2C: 81.3%
  %binding: 81.3%
  Ki: 7.9 nM
  SI, selectivity index, 2C: 1.0
5-HT2C receptor [1]; 5-HT2C versus other 5-HT receptor subtypes
  selectivity for other 5-HT receptor subtypes, difference in potency: greater than 10 fold
Microsomal stability
  remaining at 0.5 h, 1 μM: 96.6%
5-HT2A receptor [2]
  Ki: 1280 nM
  %Binding at 10 μM, 2A: 75.5%
  SI, selectivity index, 2A: 162.5
[3]
  %remaining activity of isozymes: > 60%
5-HT7 receptor
  Ki: 1020 nM
  %Binding at 10 μM, 7: 61.3%
  SI, selectivity index, 7: 128.6
5-HT1A receptor
  Ki: 578 nM
  %Binding at 10 μM, 1A: 74.1%
  SI, selectivity index, 1A: 73.2
5-HT3 receptor
  Ki: 323 nM
  %Binding at 10 μM, 3: 89.0%
  SI, selectivity index, 3: 40.9
5-HT2C receptor [4]
  %activation: 81.0%
5-HT5A receptor
  %Binding at 10 μM, 5A: 22.5 /ND %
5-HT6 receptor
  Ki: 348 nM
  %Binding at 10 μM, 6: 50.7%
  SI, selectivity index, 6: 44.1
5-HT2B receptor
  Ki: 83 nM
  %Binding at 10 μM, 2B: 98.0%
  SI, selectivity index, 2B: 10.5
5-HT1E receptor
  %Binding at 10 μM, 1E: 43.1 /ND^b %

## C[C@@H]1CNCCN1c1ncc(F)c(O[C@H](C)c2ccc(F)cc2)n1 [compound 8, reference compound]
5-HT1D receptor
  Ki: 1050 nM
  %Binding at 10 μM, 1D: 83.4%
  SI, selectivity index, 1D: 178.3
5-HT1B receptor
  %Binding at 10 μM, 1B: 4.9 /ND^b %
5-HT2C receptor [1]
  %Binding at 10 μM, 2C: 89.0%
  %binding: 89.0%
  Ki: 5.9 nM
  SI, selectivity index, 2C: 1.0
5-HT2A receptor [2]
  Ki: 511 nM
  %Binding at 10 μM, 2A: 85.3%
  SI, selectivity index, 2A: 86.6
5-HT2A receptor [5]
  Ki: 1280 nM
5-HT7 receptor
  Ki: 528 nM
  %Binding at 10 μM, 7: 63.4%
  SI, selectivity index, 7: 89.5
5-HT1A receptor
  Ki: 271 nM
  %Binding at 10 μM, 1A: 89.1%
  SI, selectivity index, 1A: 45.9
5-HT3 receptor
  Ki: 543 nM
  %Binding at 10 μM, 3: 83.4%
  SI, selectivity index, 3: 92.0
5-HT5A receptor
  %Binding at 10 μM, 5A: 18.5 /ND^b %
5-HT6 receptor
  Ki: 30 nM
  %Binding at 10 μM, 6: 56.7%
  SI, selectivity index, 6: 5.1
5-HT2B receptor
  Ki: 38 nM
  %Binding at 10 μM, 2B: 98.1%
  SI, selectivity index, 2B: 6.4
5-HT1E receptor
  %Binding at 10 μM, 1E: 48.0 /ND^b %
